In PubChem BioAssay (NCI):
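These data come from cells grown in 96-well plates and exposed to compound for 48 hours at five concentrations. TGI is the concentration that stops growth completely.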

How the values were obtained:
Assay in all cases: inhibition of tumour cell growth, NCI panel, 48 h
UO-31 renal = tested on: UO-31 renal
HOP-92 NSCLC = tested on: HOP-92 NSCLC
SR leukemia = tested on: SR leukemia
TK-10 renal = tested on: TK-10 renal
HS 578T breast = tested on: HS 578T breast
CCRF-CEM leukemia = tested on: CCRF-CEM leukemia
SK-MEL-5 melanoma = tested on: SK-MEL-5 melanoma
MDA-MB-435 = tested on: MDA-MB-435
SF-268 CNS = tested on: SF-268 CNS
MDA-N = tested on: MDA-N
MCF7 breast = tested on: MCF7 breast
OVCAR-5 ovarian = tested on: OVCAR-5 ovarian
PC-3 prostate = tested on: PC-3 prostate
SNB-75 CNS = tested on: SNB-75 CNS
SK-MEL-2 melanoma = tested on: SK-MEL-2 melanoma
UACC-62 melanoma = tested on: UACC-62 melanoma
SW-620 colon = tested on: SW-620 colon
SN12C renal = tested on: SN12C renal
HT29 colon = tested on: HT29 colon
HOP-62 NSCLC = tested on: HOP-62 NSCLC
RXF 393 renal = tested on: RXF 393 renal
CAKI-1 renal = tested on: CAKI-1 renal
LOX IMVI melanoma = tested on: LOX IMVI melanoma
UACC-257 melanoma = tested on: UACC-257 melanoma
A549 NSCLC = tested on: A549 NSCLC
MDA-MB-231 breast = tested on: MDA-MB-231 breast
SNB-19 CNS = tested on: SNB-19 CNS
SK-OV-3 ovarian = tested on: SK-OV-3 ovarian
DU-145 prostate = tested on: DU-145 prostate
MOLT-4 leukemia = tested on: MOLT-4 leukemia
U251 CNS = tested on: U251 CNS
EKVX NSCLC = tested on: EKVX NSCLC
786-0 renal = tested on: 786-0 renal
RPMI-8226 leukemia = tested on: RPMI-8226 leukemia
M14 melanoma = tested on: M14 melanoma
K-562 leukemia = tested on: K-562 leukemia
KM12 colon = tested on: KM12 colon
A498 renal = tested on: A498 renal
IGROV1 ovarian = tested on: IGROV1 ovarian
HCT-15 colon = tested on: HCT-15 colon
OVCAR-8 ovarian = tested on: OVCAR-8 ovarian
HL-60(TB) leukemia = tested on: HL-60(TB) leukemia
ACHN renal = tested on: ACHN renal
SK-MEL-28 melanoma = tested on: SK-MEL-28 melanoma
HCT-116 colon = tested on: HCT-116 colon
T-47D breast = tested on: T-47D breast
COLO 205 colon = tested on: COLO 205 colon
MALME-3M melanoma = tested on: MALME-3M melanoma
SF-295 CNS = tested on: SF-295 CNS
HCC-2998 colon = tested on: HCC-2998 colon
NCI-H23 lung = tested on: NCI-H23 lung

For N#Cc1nc(/C=C/c2cccs2)oc1N, the TGI (UO-31 renal) was 63.6 µM, the TGI (HOP-92 NSCLC) was > 100 µM and the TGI (SR leukemia) was 74 µM. For the same compound, the TGI (TK-10 renal) was > 100 µM, the TGI (HS 578T breast) was > 100 µM and the TGI (CCRF-CEM leukemia) was > 100 µM. For the same compound, the TGI (SK-MEL-5 melanoma) was > 100 µM, the TGI (MDA-MB-435) was > 100 µM and the TGI (SF-268 CNS) was > 100 µM. For the same compound, the TGI (MDA-N) was > 100 µM, the TGI (MCF7 breast) was > 100 µM and the TGI (OVCAR-5 ovarian) was > 100 µM. For the same compound, the TGI (PC-3 prostate) was > 100 µM, the TGI (SNB-75 CNS) was > 100 µM and the TGI (SK-MEL-2 melanoma) was > 100 µM. The TGI (UACC-62 melanoma) was > 100 µM, the TGI (SW-620 colon) was > 100 µM and the TGI (SN12C renal) was > 100 µM. For the same compound, the TGI (HT29 colon) was > 100 µM, the TGI (HOP-62 NSCLC) was > 100 µM and the TGI (RXF 393 renal) was > 100 µM. For the same compound, the TGI (CAKI-1 renal) was > 100 µM, the TGI (LOX IMVI melanoma) was > 100 µM and the TGI (UACC-257 melanoma) was > 100 µM. For the same compound, the TGI (A549 NSCLC) was > 100 µM, the TGI (MDA-MB-231 breast) was > 100 µM and the TGI (SNB-19 CNS) was > 100 µM. The TGI (SK-OV-3 ovarian) was > 100 µM, the TGI (DU-145 prostate) was > 100 µM and the TGI (MOLT-4 leukemia) was > 100 µM. The TGI (U251 CNS) was > 100 µM, the TGI (EKVX NSCLC) was > 100 µM and the TGI (786-0 renal) was > 100 µM. The TGI (RPMI-8226 leukemia) was > 100 µM, the TGI (M14 melanoma) was > 100 µM and the TGI (K-562 leukemia) was > 100 µM. The TGI (KM12 colon) was > 100 µM, the TGI (A498 renal) was > 100 µM and the TGI (IGROV1 ovarian) was > 100 µM. For the same compound, the TGI (HCT-15 colon) was > 100 µM, the TGI (OVCAR-8 ovarian) was > 100 µM and the TGI (HL-60(TB) leukemia) was > 100 µM. For the same compound, the TGI (ACHN renal) was > 100 µM, the TGI (SK-MEL-28 melanoma) was > 100 µM and the TGI (HCT-116 colon) was > 100 µM.

For COc1ccc(C(=O)/C=C/c2ccc(OCC(=O)N3CCN(c4ccccc4)CC3)cc2)cc1OC, the TGI (SR leukemia) was 6.47 µM, the TGI (TK-10 renal) was > 10 µM and the TGI (CCRF-CEM leukemia) was 7.21 µM. For the same compound, the TGI (SK-MEL-5 melanoma) was > 10 µM, the TGI (SF-268 CNS) was > 10 µM and the TGI (MDA-N) was > 10 µM. For the same compound, the TGI (MCF7 breast) was > 10 µM, the TGI (T-47D breast) was > 10 µM and the TGI (PC-3 prostate) was > 10 µM. The TGI (SNB-75 CNS) was 8.75 µM, the TGI (UACC-62 melanoma) was > 10 µM and the TGI (SW-620 colon) was > 10 µM. For the same compound, the TGI (SN12C renal) was > 10 µM, the TGI (HT29 colon) was > 10 µM and the TGI (HOP-62 NSCLC) was > 10 µM. The TGI (RXF 393 renal) was 3.86 µM, the TGI (COLO 205 colon) was > 10 µM and the TGI (CAKI-1 renal) was > 10 µM. For the same compound, the TGI (MALME-3M melanoma) was > 10 µM, the TGI (UACC-257 melanoma) was > 10 µM and the TGI (A549 NSCLC) was > 10 µM. The TGI (MDA-MB-231 breast) was > 10 µM, the TGI (SF-295 CNS) was > 10 µM and the TGI (SK-OV-3 ovarian) was > 10 µM. The TGI (HCC-2998 colon) was > 10 µM, the TGI (DU-145 prostate) was > 10 µM and the TGI (MOLT-4 leukemia) was 7.06 µM. For the same compound, the TGI (EKVX NSCLC) was > 10 µM, the TGI (786-0 renal) was > 10 µM and the TGI (RPMI-8226 leukemia) was > 10 µM. For the same compound, the TGI (M14 melanoma) was > 10 µM, the TGI (K-562 leukemia) was > 10 µM and the TGI (KM12 colon) was > 10 µM. The TGI (IGROV1 ovarian) was > 10 µM, the TGI (HCT-15 colon) was > 10 µM and the TGI (OVCAR-8 ovarian) was > 10 µM. The TGI (NCI-H23 lung) was 5.55 µM, the TGI (HL-60(TB) leukemia) was > 10 µM and the TGI (SK-MEL-28 melanoma) was > 10 µM.
